Data taken from patent US20260070951A1, “MICROPAKINE K2 ANTIMICROBIAL POLYPEPTIDE, COMPOSITION COMPRISING IT AND USE FOR TREATING BACTERIAL INFECTIONS” (priority 2022, published 2026).

Experiments:
Experiment in all cases: Inhibition zone test of compositions on Mueller Hinton lawn
Type in all cases: cell-based
S. sonnei = conditions: for Zone of growth inhibition: S. sonnei, MPK2 200 AU/mL, 24 hours
Description: (§1) Different compositions comprising the MicroPacin K2 polypeptide were prepared in different vehicles: 10% w/v methanol, 10% w/v glycerol, 0.5% w/v polyethylene glycol, and water. In the case of the MicroPacin K2 polypeptide, it was used at a concentration of 200 AU/mL in each composition.
(§2) A 5 μL aliquot of each of the prepared compositions was taken and added to a plate with Mueller Hinton medium containing the sensitivity indicator bacteria, previously seeded in the form of a lawn. The plates were then incubated for 24 hours, and the antibacterial activity of the compositions was observed according to the appearance and size of the inhibition zone. This test, in turn, was performed under the same conditions with the commercial bacteriocin Nisin as a comparator agent, which is considered a gold standard bacteriocin, for being approved by the FDA (Food and Drug Administration).
(§3) In this example, the antibacterial effect of compositions comprising the polypeptide MicroPacin K2 and an additional antibacterial agent, including nisin (5,000 AU/mL), ampicillin (0.01 μg/mL), and tetracycline (0.05 μg/mL), is evaluated. The assay was performed using distilled water as the vehicle for the composition. The final concentration of MicroPacin K2 in the compositions evaluated was 200 AU/mL.

S. aureus = conditions: MPK2 200 AU/mL, 24 hours
Description: as §1, §2, §3

B. cereus = conditions: MPK2 200 AU/mL, 24 hours
Description: as §1, §2, §3

E. coli O157:H7 = conditions: for Zone of growth inhibition: MPK2 200 AU/mL, 24 hours
Description: as §1, §2, §3

L. monocytogenes = conditions: MPK2 200 AU/mL, 24 hours
Description: as §1, §2, §3

S. saprophyticus = conditions: MPK2 200 AU/mL, 24 hours
Description: as §1, §2, §3

E. coli DH5α = conditions: MPK2 200 AU/mL, 24 hours
Description: as §1, §2, §3

C. freundii = conditions: MPK2 200 AU/mL, 24 hours
Description: as §1, §2, §3

Nisin [reference compound]
8.0 mm: Zone of growth inhibition (S. aureus; vehicle Methanol 10%) | Zone of growth inhibition (S. aureus; vehicle PEG 0.5%) | Zone of growth inhibition (B. cereus; vehicle H2O) | Zone of growth inhibition (B. cereus; vehicle Methanol 10%) | Zone of growth inhibition (E. coli DH5α; vehicle Glycerol 10%) | Zone of growth inhibition (E. coli DH5α; vehicle H2O) | Zone of growth inhibition (E. coli DH5α; vehicle Methanol 10%) | Zone of growth inhibition (E. coli DH5α; vehicle PEG 0.5%) | Zone of growth inhibition (C. freundii; vehicle Glycerol 10%) | Zone of growth inhibition (C. freundii; vehicle H2O) | Zone of growth inhibition (C. freundii; vehicle Methanol 10%)
7.0 mm: Zone of growth inhibition (C. freundii; vehicle PEG 0.5%)
not able to inhibit their growth: Inhibition of growth (inhibition halo) (S. sonnei; Shigella sonnei, compositions) | Inhibition of growth (inhibition halo) (E. coli O157:H7; compositions)
0 mm: Zone of growth inhibition (S. sonnei; vehicle Glycerol 10%) | Zone of growth inhibition (S. sonnei; vehicle H2O) | Zone of growth inhibition (S. sonnei; vehicle Methanol 10%) | Zone of growth inhibition (S. sonnei; vehicle PEG 0.5%) | Zone of growth inhibition (E. coli O157:H7; vehicle Glycerol 10%) | Zone of growth inhibition (E. coli O157:H7; vehicle H2O) | Zone of growth inhibition (E. coli O157:H7; vehicle Methanol 10%) | Zone of growth inhibition (E. coli O157:H7; vehicle PEG 0.5%)
10.0 mm: Zone of growth inhibition (S. saprophyticus; vehicle Glycerol 10%) | Zone of growth inhibition (S. saprophyticus; vehicle H2O) | Zone of growth inhibition (S. saprophyticus; vehicle Methanol 10%)
9.0 mm: Zone of growth inhibition (S. aureus; vehicle Glycerol 10%) | Zone of growth inhibition (S. aureus; vehicle H2O) | Zone of growth inhibition (B. cereus; vehicle Glycerol 10%) | Zone of growth inhibition (B. cereus; vehicle PEG 0.5%) | Zone of growth inhibition (L. monocytogenes; vehicle Glycerol 10%) | Zone of growth inhibition (L. monocytogenes; vehicle H2O) | Zone of growth inhibition (L. monocytogenes; vehicle Methanol 10%) | Zone of growth inhibition (L. monocytogenes; vehicle PEG 0.5%) | Zone of growth inhibition (S. saprophyticus; vehicle PEG 0.5%)
